Experiment [1] can be described thus: Displacement of [3H]ACE from Aplysia AChBP expressed in HEK293S cells by scintillation proximity assay. The experiment is classed as cell-based. In general terms: Loss of bound radioactivity is the signal in a displacement assay; it reports binding, not function.
Experiment [2] in a line: Displacement of [3H]EPI from Aplysia AChBP expressed in HEK293S cells by scintillation proximity assay. The class given is cell-based.
The nature of experiment [3]: Inhibition of [3H]1-((5-azido-6-chloropyridin-3-yl)methyl)-3-methyl-2-nitroguanidine incorporation into AchBP assessed as protection of photoaffinity labeling at 500 pmol. On the set-up: scale not given: the % may be the effect or the level left.

For orientation: Ki means a measure of affinity in units of concentration, obtained from inhibition or displacement. As for `N=C1NCCN1Cc1ccc(Cl)nc1` [DESNITROIMIDACLOPRID], the Ki in experiment [1] was 56 nM; in experiment [2] it was 44 nM.

As for `CN/C(=N\[N+](=O)[O-])NCc1cnc(Cl)s1` [CLOTHIANIDINE], the Ki in experiment [1] was determined as 808 nM; in experiment [2] it was 574 nM.

For `CN1CCC[C@H]1c1cccnc1` [NICOTINE], the Ki in experiment [1] stood at 415 nM; in experiment [2] it was 260 nM.

As to `O=[N+]([O-])/N=C1\NCCN1Cc1ccc(Cl)nc1` [IMIDACLOPRID], the Ki in experiment [1] amounted to 267 nM; in experiment [2], 180 nM. Moreover, in experiment [3], the Activity was found to be 50%.

For `N#C/N=c1\sccn1Cc1cnc(Cl)c(N=[N+]=[N-])c1`, the Ki was 2.3 nM in experiment [1] and 1.7 nM in experiment [2].

Take `CCN(Cc1ccc(Cl)nc1)/C(=C/[N+](=O)[O-])NC` [NITENPYRAM]: the Ki stood at 335 nM in experiment [1] and 180 nM in experiment [2].

As to `N#C/N=C1\SCCN1Cc1ccc(Cl)nc1` [THIACLOPRID], the Ki came out at 9.9 nM in experiment [1] and 8.4 nM in experiment [2].

Regarding `Clc1ccc(C2CC3CCC2N3)cn1` (racemic) [EPIBATIDINE], the Ki is 14 nM in experiment [1] and 8.6 nM in experiment [2].

As to `N=C1SCCN1Cc1ccc(Cl)nc1` [DESCYANOTHIACLOPRID], the results for the Ki in experiment [1] and in experiment [2] were 10 nM and 8.5 nM, respectively.

In the case of `C/C(=N\C#N)N(C)Cc1ccc(Cl)nc1` [ACETAMIPRID], the Ki in experiment [1] came to 41 nM; in experiment [2], 19 nM.
